Reference: US20230111310A1, “CARBOXYLIC ACID DERIVATIVE-SUBSTITUTED IMINO ARYL COMPOUND, PREPARATION METHOD THEREFOR, HERBICIDAL COMPOSITION AND USE THEREOF” (Qingdao Kingagroot Chemical Compound Co., Ltd., priority 2020, published 2023)

Experiments:
Format in all cases: in vivo
Echinochloa crusgalli = assay: Weeding effect in post-emergence stage; settings: Dose 15 g/ha; for Weeding effect in post-emergence stage, Echinochloa crusgalli: level of fresh weight growth control rate
Method in brief: (§1)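 Seeds are sown in soil-filled pots under 0.5-2 cm soil and grown 2 weeks in greenhouse. Plants at 2-3 leaves are sprayed with compound (acetone, Tween 80, 1.5 liter/ha methyl oleate EC, water) at 7.5 to 500 g/ha. Damage is rated 3 weeks later, averaging three repeats.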

Setaria viridis [1] = assay: Weeding effect in post-emergence stage; settings: Dose 15 g/ha; for Weeding effect in post-emergence stage, Setaria viridis: level of fresh weight growth control rate
Method in brief: as §1

Abutilon theophrasti [2] = assay: Weeding effect in post-emergence stage; settings: Dose 15 g/ha; for Weeding effect in post-emergence stage, Abutilon theophrasti: level of fresh weight growth control rate
Method in brief: as §1

Digitaria sanguinalis = assay: Weeding effect in post-emergence stage; settings: Dose 15 g/ha; for Weeding effect in post-emergence stage, Digitaria sanguinalis: level of fresh weight growth control rate
Method in brief: as §1

Eleusine indica = assay: Weeding effect in post-emergence stage; settings: Dose 15 g/ha; for Weeding effect in post-emergence stage, Eleusine indica: level of fresh weight growth control rate
Method in brief: as §1

Alopecurus japonicus = assay: Weeding effect in post-emergence stage; settings: Dose 15 g/ha; for Weeding effect in post-emergence stage, Alopecurus japonicus: level of fresh weight growth control rate
Method in brief: as §1

Setaria viridis [3] = assay: Weeding effect in pre-emergence stage; settings: 30 g/ha, 4 weeks
Experimental: (§2) The activity level criteria for plant damage (i.e., growth control rate) are as follows:
(§3) The aforementioned seeds of monocotyledonous and dicotyledonous weeds and main crops were put into a plastic pot loaded with soil and covered with 0.5-2 cm soil. The test compounds of the present invention was dissolved with acetone, then added with tween 80, diluted by a certain amount of water to reach a certain concentration, and sprayed immediately after sowing. The obtained seeds were incubated for 4 weeks in the greenhouse after spraying and the test results were observed. It was observed that the herbicide mostly had excellent effect at the application rate of 500, 250, 125, 60, 30, 15, 7.5 g/ha, especially to weeds such as Echinochloa crusgalli. Digitaria sanguinalis and Abutilon theophrasti, etc. And many compounds had good selectivity for corn, cotton, wheat, rice, soybean, and peanut etc. In addition, evaluate the weed control effect with the above activity standard level.

Abutilon theophrasti [4] = assay: Weeding effect in pre-emergence stage; settings: 30 g/ha, 4 weeks
Experimental: as §2, §3

Capsella bursa-pastoris = assay: Weeding effect in pre-emergence stage; settings: 30 g/ha, 4 weeks
Experimental: as §2, §3

Amaranthus retroflexus = assay: Weeding effect in pre-emergence stage; settings: 30 g/ha, 4 weeks
Experimental: as §2, §3

Descurainia sophia = assay: Weeding effect in pre-emergence stage; settings: 30 g/ha, 4 weeks
Experimental: as §2, §3

Veronica didyma Tenore = assay: Weeding effect in pre-emergence stage; settings: 30 g/ha, 4 weeks
Experimental: as §2, §3

Soybeans = assay: Pre-emergence stage, crop selectivity; settings: 30 g/ha, 4 weeks
Experimental: as §2, §3

Peanut = assay: Pre-emergence stage, crop selectivity; settings: 30 g/ha, 4 weeks
Experimental: as §2, §3

corn = assay: Pre-emergence stage, crop selectivity; settings: 30 g/ha, 4 weeks
Experimental: as §2, §3

cotton = assay: Pre-emergence stage, crop selectivity; settings: 30 g/ha, 4 weeks
Experimental: as §2, §3

[5] = fresh weight control rate level

CCOC(=O)COC(=O)[C@@H](C)O/N=C/c1cc(-n2c(=O)cc(C(F)(F)F)n(C)c2=O)c(F)cc1Cl [239(R)]
Weeding effect in post-emergence stage, Echinochloa crusgalli (Echinochloa crusgalli): 5 (Level 5: growth control rate is above 85%)
Weeding effect in post-emergence stage, Setaria viridis (Setaria viridis [1]): 5 (Level 5: growth control rate is above 85%)
Weeding effect in post-emergence stage, Abutilon theophrasti (Abutilon theophrasti [2]): 5 (Level 5: growth control rate is above 85%)
Weeding effect in post-emergence stage, Digitaria sanguinalis (Digitaria sanguinalis): 5 (Level 5: growth control rate is above 85%)
Weeding effect in post-emergence stage, Eleusine indica (Eleusine indica): 5 (Level 5: growth control rate is above 85%)
Weeding effect in post-emergence stage, Alopecurus japonicus (Alopecurus japonicus): 5 (Level 5: growth control rate is above 85%)
activity level (growth control rate) Setaria viridis (Setaria viridis [3]): 5 (Level 5: growth control rate is above 85%)
activity level (growth control rate) Abutilon theophrasti (Abutilon theophrasti [4]): 5 (Level 5: growth control rate is above 85%)
activity level (growth control rate) Capsella bursa-pastoris (Capsella bursa-pastoris): 5 (Level 5: growth control rate is above 85%)
activity level (growth control rate) Amaranthus retroflexus (Amaranthus retroflexus): 5 (Level 5: growth control rate is above 85%)
activity level (growth control rate) Descurainia sophia (Descurainia sophia): 5 (Level 5: growth control rate is above 85%)
activity level (growth control rate) Veronica didyma Tenore (Veronica didyma Tenore): 5 (Level 5: growth control rate is above 85%)
plant damage level Soybeans (Soybeans): 0 (Level 0: growth control rate is less than 5%)
plant damage level Peanut (Peanut): 0 (Level 0: growth control rate is less than 5%)
plant damage level Corn (corn): 0 (Level 0: growth control rate is less than 5%)
plant damage level Cotton (cotton): 0 (Level 0: growth control rate is less than 5%)

CCSC(=O)[C@@H](C)O/N=C/c1cc(-n2c(=O)cc(C(F)(F)F)n(C)c2=O)c(F)cc1Cl [398(R)]
Weeding effect in post-emergence stage, Echinochloa crusgalli (level) (Echinochloa crusgalli; [5]): 5 (Level 5: growth control rate is above 85%)
Weeding effect in post-emergence stage, Setaria viridis (level) (Setaria viridis [1]; [5]): 5 (Level 5: growth control rate is above 85%)
Weeding effect in post-emergence stage, Abutilon theophrasti (level) (Abutilon theophrasti [2]; [5]): 5 (Level 5: growth control rate is above 85%)
Weeding effect in post-emergence stage, Digitaria sanguinalis (level) (Digitaria sanguinalis; [5]): 5 (Level 5: growth control rate is above 85%)
Weeding effect in post-emergence stage, Eleusine indica (level) (Eleusine indica; [5]): 5 (Level 5: growth control rate is above 85%)
Weeding effect in post-emergence stage, Alopecurus japonicus (level) (Alopecurus japonicus; [5]): 5 (Level 5: growth control rate is above 85%)
activity level (growth control rate) Setaria viridis (Setaria viridis [3]): 5 (Level 5: growth control rate is above 85%)
activity level (growth control rate) Abutilon theophrasti (Abutilon theophrasti [4]): 5 (Level 5: growth control rate is above 85%)
activity level (growth control rate) Capsella bursa-pastoris (Capsella bursa-pastoris): 5 (Level 5: growth control rate is above 85%)
activity level (growth control rate) Amaranthus retroflexus (Amaranthus retroflexus): 5 (Level 5: growth control rate is above 85%)
activity level (growth control rate) Descurainia sophia (Descurainia sophia): 5 (Level 5: growth control rate is above 85%)
activity level (growth control rate) Veronica didyma Tenore (Veronica didyma Tenore): 5 (Level 5: growth control rate is above 85%)
plant damage level Soybeans (Soybeans): 0 (Level 0: growth control rate is less than 5%)
plant damage level Peanut (Peanut): 0 (Level 0: growth control rate is less than 5%)
plant damage level Corn (corn): 0 (Level 0: growth control rate is less than 5%)
plant damage level Cotton (cotton): 0 (Level 0: growth control rate is less than 5%)

CCOC(=O)[C@@H](C)O/N=C/c1cc(-n2c(=O)n(C)c(=S)n(C)c2=O)c(F)cc1Cl [2(R)]
Weeding effect in post-emergence stage, Echinochloa crusgalli (Echinochloa crusgalli): 5 (Level 5: growth control rate is above 85%)
Weeding effect in post-emergence stage, Setaria viridis (Setaria viridis [1]): 5 (Level 5: growth control rate is above 85%)
Weeding effect in post-emergence stage, Abutilon theophrasti (Abutilon theophrasti [2]): 5 (Level 5: growth control rate is above 85%)
Weeding effect in post-emergence stage, Digitaria sanguinalis (Digitaria sanguinalis): 5 (Level 5: growth control rate is above 85%)
Weeding effect in post-emergence stage, Eleusine indica (Eleusine indica): 5 (Level 5: growth control rate is above 85%)
Weeding effect in post-emergence stage, Alopecurus japonicus (Alopecurus japonicus): 5 (Level 5: growth control rate is above 85%)
activity level (growth control rate) Setaria viridis (Setaria viridis [3]): 5 (Level 5: growth control rate is above 85%)
activity level (growth control rate) Abutilon theophrasti (Abutilon theophrasti [4]): 5 (Level 5: growth control rate is above 85%)
activity level (growth control rate) Capsella bursa-pastoris (Capsella bursa-pastoris): 5 (Level 5: growth control rate is above 85%)
activity level (growth control rate) Amaranthus retroflexus (Amaranthus retroflexus): 5 (Level 5: growth control rate is above 85%)
activity level (growth control rate) Descurainia sophia (Descurainia sophia): 5 (Level 5: growth control rate is above 85%)
activity level (growth control rate) Veronica didyma Tenore (Veronica didyma Tenore): 5 (Level 5: growth control rate is above 85%)
plant damage level Soybeans (Soybeans): 0 (Level 0: growth control rate is less than 5%)
plant damage level Peanut (Peanut): 0 (Level 0: growth control rate is less than 5%)
plant damage level Corn (corn): 0 (Level 0: growth control rate is less than 5%)
plant damage level Cotton (cotton): 0 (Level 0: growth control rate is less than 5%)

COC/C(C)=N/OC(=O)[C@@H](C)O/N=C/c1cc(-n2c(=O)cc(C(F)(F)F)n(C)c2=O)c(F)cc1Cl [253(R)]
Weeding effect in post-emergence stage, Echinochloa crusgalli (Echinochloa crusgalli): 5 (Level 5: growth control rate is above 85%)
Weeding effect in post-emergence stage, Setaria viridis (Setaria viridis [1]): 5 (Level 5: growth control rate is above 85%)
Weeding effect in post-emergence stage, Abutilon theophrasti (Abutilon theophrasti [2]): 5 (Level 5: growth control rate is above 85%)
Weeding effect in post-emergence stage, Digitaria sanguinalis (Digitaria sanguinalis): 5 (Level 5: growth control rate is above 85%)
Weeding effect in post-emergence stage, Eleusine indica (Eleusine indica): 5 (Level 5: growth control rate is above 85%)
Weeding effect in post-emergence stage, Alopecurus japonicus (Alopecurus japonicus): 5 (Level 5: growth control rate is above 85%)
activity level (growth control rate) Setaria viridis (Setaria viridis [3]): 5 (Level 5: growth control rate is above 85%)
activity level (growth control rate) Abutilon theophrasti (Abutilon theophrasti [4]): 5 (Level 5: growth control rate is above 85%)
activity level (growth control rate) Capsella bursa-pastoris (Capsella bursa-pastoris): 5 (Level 5: growth control rate is above 85%)
activity level (growth control rate) Amaranthus retroflexus (Amaranthus retroflexus): 5 (Level 5: growth control rate is above 85%)
activity level (growth control rate) Descurainia sophia (Descurainia sophia): 5 (Level 5: growth control rate is above 85%)
activity level (growth control rate) Veronica didyma Tenore (Veronica didyma Tenore): 5 (Level 5: growth control rate is above 85%)
plant damage level Soybeans (Soybeans): 0 (Level 0: growth control rate is less than 5%)
plant damage level Peanut (Peanut): 0 (Level 0: growth control rate is less than 5%)
plant damage level Corn (corn): 0 (Level 0: growth control rate is less than 5%)
plant damage level Cotton (cotton): 0 (Level 0: growth control rate is less than 5%)

COC(=O)[C@@H](C)O/N=C/c1cc(-n2c(=S)cc(C(F)(F)F)n(C)c2=O)c(F)cc1Cl [349(R)]
Weeding effect in post-emergence stage, Echinochloa crusgalli (Echinochloa crusgalli): 5 (Level 5: growth control rate is above 85%)
Weeding effect in post-emergence stage, Setaria viridis (Setaria viridis [1]): 5 (Level 5: growth control rate is above 85%)
Weeding effect in post-emergence stage, Abutilon theophrasti (Abutilon theophrasti [2]): 5 (Level 5: growth control rate is above 85%)
Weeding effect in post-emergence stage, Digitaria sanguinalis (Digitaria sanguinalis): 5 (Level 5: growth control rate is above 85%)
Weeding effect in post-emergence stage, Eleusine indica (Eleusine indica): 5 (Level 5: growth control rate is above 85%)
Weeding effect in post-emergence stage, Alopecurus japonicus (Alopecurus japonicus): 5 (Level 5: growth control rate is above 85%)
activity level (growth control rate) Setaria viridis (Setaria viridis [3]): 5 (Level 5: growth control rate is above 85%)
activity level (growth control rate) Abutilon theophrasti (Abutilon theophrasti [4]): 5 (Level 5: growth control rate is above 85%)
activity level (growth control rate) Capsella bursa-pastoris (Capsella bursa-pastoris): 5 (Level 5: growth control rate is above 85%)
activity level (growth control rate) Amaranthus retroflexus (Amaranthus retroflexus): 5 (Level 5: growth control rate is above 85%)
activity level (growth control rate) Descurainia sophia (Descurainia sophia): 5 (Level 5: growth control rate is above 85%)
activity level (growth control rate) Veronica didyma Tenore (Veronica didyma Tenore): 5 (Level 5: growth control rate is above 85%)
plant damage level Soybeans (Soybeans): 0 (Level 0: growth control rate is less than 5%)
plant damage level Peanut (Peanut): 0 (Level 0: growth control rate is less than 5%)
plant damage level Corn (corn): 0 (Level 0: growth control rate is less than 5%)
plant damage level Cotton (cotton): 0 (Level 0: growth control rate is less than 5%)

C[C@@H](O/N=C/c1cc(-n2c(=O)cc(C(F)(F)F)n(C)c2=O)c(F)cc1Cl)C(=O)OCc1ccccc1 [283(R)]
Weeding effect in post-emergence stage, Echinochloa crusgalli (Echinochloa crusgalli): 5 (Level 5: growth control rate is above 85%)
Weeding effect in post-emergence stage, Setaria viridis (Setaria viridis [1]): 5 (Level 5: growth control rate is above 85%)
Weeding effect in post-emergence stage, Abutilon theophrasti (Abutilon theophrasti [2]): 5 (Level 5: growth control rate is above 85%)
Weeding effect in post-emergence stage, Digitaria sanguinalis (Digitaria sanguinalis): 5 (Level 5: growth control rate is above 85%)
Weeding effect in post-emergence stage, Eleusine indica (Eleusine indica): 5 (Level 5: growth control rate is above 85%)
Weeding effect in post-emergence stage, Alopecurus japonicus (Alopecurus japonicus): 5 (Level 5: growth control rate is above 85%)
activity level (growth control rate) Setaria viridis (Setaria viridis [3]): 5 (Level 5: growth control rate is above 85%)
activity level (growth control rate) Abutilon theophrasti (Abutilon theophrasti [4]): 5 (Level 5: growth control rate is above 85%)
activity level (growth control rate) Capsella bursa-pastoris (Capsella bursa-pastoris): 5 (Level 5: growth control rate is above 85%)
activity level (growth control rate) Amaranthus retroflexus (Amaranthus retroflexus): 5 (Level 5: growth control rate is above 85%)
activity level (growth control rate) Descurainia sophia (Descurainia sophia): 5 (Level 5: growth control rate is above 85%)
activity level (growth control rate) Veronica didyma Tenore (Veronica didyma Tenore): 5 (Level 5: growth control rate is above 85%)
plant damage level Soybeans (Soybeans): 0 (Level 0: growth control rate is less than 5%)
plant damage level Peanut (Peanut): 0 (Level 0: growth control rate is less than 5%)
plant damage level Corn (corn): 0 (Level 0: growth control rate is less than 5%)
plant damage level Cotton (cotton): 0 (Level 0: growth control rate is less than 5%)
